Measured values as given in patent US20020182232A9, “Cosmetic composition comprising at least one ingredient chosen from compounds of formula (I) and salts thereof, use thereof as colouring agent, and novel compounds of formulae (IIa), (IIIa), (IVa), (Va), and (VIa), and salts thereof” (priority 2000, published 2002).

Columns and labels:
[1] = Photochemical stability (SUNTEST CPS, colour difference before/after); type: physicochemical; settings: compacted pure compound, SUNTEST CPS one hour, 765 watts/m^2; UV-unstable when ΔE >6
Description: 4/Photochemical Stability
The UV stability was carried out by leaving the compacted pure test compound (100 bar, FAP crucible) in the SUNTEST CPS for one hour. The SUNTEST CPS is an apparatus sold by Heraeus. […] The apparatus was used at 765 watts/m^2 and emits UVA, UVB, and visible light over a range of 300 to 800 nm.
The difference in colour ΔE before and after the SUNTEST was measured by colorimetry.
The compound was considered as UV-unstable when the ΔE was >6.

[2] = Bleeding: ability to dissolve in a dispersion medium (optical density of supernatant); type: physicochemical; settings: supernatant absorbance 400 to 800 nm, bleeds when O.D. >1.5; for Bleeding in water, O.D.: 1% by weight compound in water + 1% Polysorbate 20; for Bleeding in oil (triglycerides), O.D.: 1% by weight compound in caprylic/capric acid triglycerides
Description: 3/Bleeding: Ability to Dissolve in a Dispersion Medium
A dispersion was prepared comprising 1% by weight of test compound in an oil (caprylic/capric acid triglycerides).
A dispersion was also prepared comprising 1% by weight of test compound in a mixture of water and 1% by weight of wetting agent (Polysorbate 20).
The mixture was stirred for 10 minutes using a magnetic bar. 10 g of dispersion were weighed out and placed in centrifuge tubes. This material was centrifuged for 30 minutes at 3000 rpm.
The supernatant liquid was taken up and the optical density was determined by measuring the absorbence on a spectrophotometer from 400 to 800 nm, at a speed of 240 nm/min.
The compound was considered to bleed when the optical density was greater than 1.5.

Row | SMILES | Photochemical stability ΔE [1] | Bleeding in water, O.D. [2] | Bleeding in oil (triglycerides), O.D. [2] | melting point
1 | O=S(=O)([O-])c1ccc(N=Nc2c(O)ccc3cc(S(=O)(=O)[O-])ccc23)cc1.[Na+].[Na+] [FD&C Yellow No. 6, reference compound] | ΔE = 10.06 | O.D. = 0.58 | – | –
2 | O=C1c2ccccc2C(=O)c2c1oc1c2ccc2ccc(O)cc21 [2-Hydroxy-dinaphtho(1,2-b:2′,3′-d)furan-7,12-dione] | ΔE = 1.32 | O.D. = 0.23 | – | –
3 | COc1ccc2ccc3oc4c(c3c2c1)C(=O)c1ccccc1C4=O [2-methoxydinaphtho-(2,1-b:2′,3′-d)furan-8,13-dione] | ΔE = 0.28 | O.D. = 0.30 | – | –
4 | CCOc1cc2c3c(oc2c2ccccc12)C(=O)c1ccccc1C3=O [5-ethoxydinaphtho(1,2-b:2′,3′-d)furan-7,12-dione] | ΔE = 0.24 | O.D. = 0.27 | – | –
5 | O=C1c2ccccc2C(=O)c2c1oc1ccc3cc(Br)ccc3c21 [3-bromodinaphtho(2,1-b:-2′,3′-d)furan-8,13-dione] | ΔE = 2.61 | O.D. = 0.03 | O.D. = 0.92 | –
6 | CCCCCCOc1cc2c3c(oc2c2ccccc12)C(=O)c1ccccc1C3=O [5-hexyloxydinaphtho-(1,2-b:2′,3′-d)furan-7,12-dione] | ΔE = 0.91 | O.D. = 0.29 | – | 173.9 °C
7 | COc1ccc2c(ccc3oc4c(c32)C(=O)c2ccccc2C4=O)c1 [3-methoxydinaphtho-(2,1-b:2′,3′-d)furan-8,13-dione] | ΔE = 0.81 | O.D. = 0.04 | O.D. = 0.88 | 292.1 °C
8 | O=C1c2ccccc2C(=O)c2c1oc1c2cc(Cl)c2ccccc21 [5-chlorodinaphtho-(1,2-b:2′,3′-d)furan-7,12-dione] | ΔE = 1.36 | O.D. = 0.02 | – | –
9 | O=C(O)c1nn(-c2ccc(S(=O)(=O)O)cc2)c(O)c1N=Nc1ccc(S(=O)(=O)O)cc1 [FD&C Yellow No. 5, reference compound] | ΔE = 6.63 | O.D. = 0.08 | – | –
10 | CC(C)Oc1cc2c3c(oc2c2ccccc12)C(=O)c1ccccc1C3=O [5-isopropyloxydinaphtho-(1,2-b:2′,3′-d)furan-7,12-dione] | ΔE = 0.81 | O.D. = 0.03 | – | –
11 | O=C1c2ccccc2C(=O)c2c1oc1c2ccc2ccccc21 [Dinaphtho(1,2-b:2′,3′-d)furan-7,12-dione, dinaphtho(1,2-b:2′,3′-d)furan-7,12-dione] | ΔE = 3.91 | O.D. = 0.13 | – | –
12 | O=C1c2ccccc2C(=O)c2c1oc1cc(O)c3ccccc3c21 [5-hydroxydinaphtho(2,1-b:2′,3′-d)furan-8,13-dione] | ΔE = 0.10 | O.D. = 0.16 | – | –
13 | O=C1c2ccccc2C(=O)c2c1oc1ccc3ccccc3c21 [Dinaphtho(2,1-b:2′,3′-d)furan-8,13-dione, dinaphtho(2,1-b:2′,3′-d)furan-8,13-dione] | ΔE = 0.23 | O.D. = 0.01 | – | –
